From patent US8486921B2, “Synthesis of tetracyclines and analogues thereof” (President and Fellows of Harvard College, priority 2006, dated 2013)

Tested on: Gram-positive strains
Assay: Whole-cell antibacterial MIC assay (NCCLS serial dilution), Gram-positive strains
Type: cell-based
Settings: each of the Gram-positive strains examined, including strains with resistance to tetracycline, methicillin, and vancomycin
Procedure: The efficiencies of the synthetic sequences have allowed for the preparation of sufficient quantities of each tetracycline analog for antibacterial testing using standard serial-dilution techniques (5-20 mg amounts). Minimum inhibitory concentrations (MICs) are reported for each analog in whole-cell antimicrobial assays using five Gram-positive and five Gram-negative organisms (FIG. 18).
Whole-cell antibacterial activity was determined according to methods recommended by the NCCLS-(National Committee for Clinical Laboratory Standards. 2002. Methods for dilution antimicrobial susceptibility tests for bacteria that grow aerobically: approved standard-fifth edition. NCCLS document M100-S12. National Committee for Clinical Laboratory Standards. Wayne, Pa.; incorporated herein by reference). Test compounds were dissolved in dimethyl sulfoxide (DMSO) and the resulting solutions were diluted in water (1:10) to produce stock solutions with a final concentration of 256 μg tetracycline analog per mL. In a 96-well microtiter plate, 50-μL aliquots of stock solutions were diluted serially into cation-adjusted Mueller-Hinton broth (MHB; Becton-Dickinson, Cockeysville, Md.). Test organisms (50 μL aliquots of solutions […]) were then added to the appropriate wells of the microtiter plate. […] The MIC was the lowest concentration of compound determined to inhibit visible growth. […]

CN(C)[C@@H]1C(O)=C(C(N)=O)C(=O)[C@@]2(O)C(O)=C3C(=O)c4c(cc5ccccc5c4O)C[C@H]3C[C@@H]12 [compound 6]
antibacterial activity (MIC) compared with tetracycline: activity equal to or greater than tetracycline
